Earlier results, collected in patent US20120245028A1, “Methods for Use of Tetraalkyl Ammonium Halide Compositions as Post-emergence Higher Plant Herbicides” (priority 2011, published 2012).

Tests used:
[1] = system: small apple tree seedlings; conditions: following fungus inoculation and a treatment with 5% solution
[2] = system: infected field apple trees; conditions: infected field apple trees treated with 5% solution

CCCCCCCCCC[N+](C)(C)CCCCCCCCCC.[Br-] [DDAB, didecyl dimethyl ammonium bromide]
phytotoxicity [1]: severe phytotoxicity
damage caused by the treatments [2]: no obvious damage
effect upon the total number of growing buds [2]: no effect
